The target in assay [1] is T1, TGF-β1-α2M* complex (Homo sapiens, UniProt P01023).
T1 construct: was purified from pooled citrate-treate human plasma; from tissue; host or cells: pooled citrate-treated human plasma
T1 sequence (P01023 24-1474): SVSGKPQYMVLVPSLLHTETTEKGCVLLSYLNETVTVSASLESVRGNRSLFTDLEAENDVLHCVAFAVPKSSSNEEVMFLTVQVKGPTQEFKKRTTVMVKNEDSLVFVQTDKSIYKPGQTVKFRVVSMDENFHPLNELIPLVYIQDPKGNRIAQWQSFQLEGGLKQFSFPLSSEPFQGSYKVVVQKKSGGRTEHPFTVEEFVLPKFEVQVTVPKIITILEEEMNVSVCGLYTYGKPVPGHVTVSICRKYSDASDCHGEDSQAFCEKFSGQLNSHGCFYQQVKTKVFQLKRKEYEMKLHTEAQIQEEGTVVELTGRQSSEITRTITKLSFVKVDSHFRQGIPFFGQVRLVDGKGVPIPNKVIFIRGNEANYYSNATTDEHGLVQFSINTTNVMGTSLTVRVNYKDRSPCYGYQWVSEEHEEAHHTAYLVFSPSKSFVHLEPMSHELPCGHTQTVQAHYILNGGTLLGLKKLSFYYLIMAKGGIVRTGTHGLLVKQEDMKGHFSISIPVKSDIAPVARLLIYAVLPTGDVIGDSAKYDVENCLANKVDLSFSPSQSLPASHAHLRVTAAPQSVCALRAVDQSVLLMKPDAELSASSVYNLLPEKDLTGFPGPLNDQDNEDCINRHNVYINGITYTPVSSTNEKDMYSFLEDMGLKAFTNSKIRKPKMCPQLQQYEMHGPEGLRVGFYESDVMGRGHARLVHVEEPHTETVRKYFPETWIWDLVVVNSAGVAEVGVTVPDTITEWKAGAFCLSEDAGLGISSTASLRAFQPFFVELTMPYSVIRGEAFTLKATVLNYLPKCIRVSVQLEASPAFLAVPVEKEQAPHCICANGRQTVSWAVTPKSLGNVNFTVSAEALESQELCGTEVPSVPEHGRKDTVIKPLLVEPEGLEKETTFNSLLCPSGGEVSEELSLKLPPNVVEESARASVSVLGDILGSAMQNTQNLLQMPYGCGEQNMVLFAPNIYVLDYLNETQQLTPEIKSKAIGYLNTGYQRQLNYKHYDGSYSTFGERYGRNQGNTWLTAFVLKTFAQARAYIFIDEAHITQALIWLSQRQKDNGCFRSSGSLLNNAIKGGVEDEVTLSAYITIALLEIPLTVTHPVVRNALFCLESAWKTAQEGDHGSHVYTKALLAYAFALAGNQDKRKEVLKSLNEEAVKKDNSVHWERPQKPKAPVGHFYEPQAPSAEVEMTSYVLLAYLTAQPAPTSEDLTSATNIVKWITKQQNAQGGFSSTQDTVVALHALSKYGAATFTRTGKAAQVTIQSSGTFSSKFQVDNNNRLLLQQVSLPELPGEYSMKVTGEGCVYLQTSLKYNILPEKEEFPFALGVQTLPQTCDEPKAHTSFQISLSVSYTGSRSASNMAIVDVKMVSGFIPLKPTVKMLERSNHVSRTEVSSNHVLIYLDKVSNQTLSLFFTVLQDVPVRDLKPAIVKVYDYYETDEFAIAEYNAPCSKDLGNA
The assay is described as follows: Inhibition of 125I-TGF-β1 and α2M* complex formation (5% non-denaturing PAGE, autoradiography). The assay is classed as binding. As to conditions: ~1 nM 125I-TGF-β1, 10 μg α2M* in 0.05 ml, 30 min room temperature, non-denaturing PAGE; read-out: IC50 for inhibiting complex formation between TGF-β1 and α2M*. How it is done: Saturated and unsaturated fatty acids are present in plasma and tissues (25,26). The effects of various concentrations of saturated fatty acids on the formation of complexes between ^125I-TGF ? β1 and ? 2M* were examined. ^125I-TGF- ? 1 (1 nM) was incubated μg/ml) in the presence of various concentrations of n-caprylic acid ([…]), lauric acid (12 carbon atoms), myristic acid (14 carbon atoms), palmitic acid (16 carbon atoms) and stearic acid (18 carbon atoms). After 30 min at room temperature, the reaction mixture was analyzed by 5% non-denaturing PAGE and autoradiography, a standard method form determining complex formation between TGF-β and α2M* (12). […] At 100 μM, it inhibited 20% of the complex formation between TGF ? β1 and α2M*. Esterification consistently abolished the inhibitory activities of the fatty acids.
Complex formation of ^125I-TGF-β and ? 2M*—The reaction mixture contained 10 μg of . α2M*, ˜1 nM of ^125I-TGF- ? 1, ^125I-TGF ? β2 or ^125I-TGF ? acids (dissolved in 100% ethanol) in 0.05 ml of 50 mM HEPES-NaOH buffer, pH 7.4. The final concentration of ethanol in the reaction mixture was 0.5%. These fatty acids and fatty acid derivatives were soluble under the experimental conditions. After 30 min at room temperature, the complex formation of ^125I-TGF- ? and. α2M* was determined by 5% non-denaturing polyacrylamide gel electrophoresis (PAGE) or by 7.5% SDS-PAGE following cross-linking by 0.6 mM DSS. After electrophoresis, the gel was stained with Coomassie blue and analyzed by autoradiography. The ^125I-TGF- ? - ? 2M* complex which co-migrated with free ? 2M* was quantified using a PhosphoImager (Fuji).

The target in assay [2] is T2, 125I-TGF-β1-α2M* complex (Homo sapiens, UniProt P01023).
T2 construct: was purified from pooled citrate-treate human plasma; from tissue; host or cells: pooled citrate-treated human plasma
T2 sequence (P01023 24-1474): T1 sequence (P01023 24-1474)
In words: Dissociation of preformed 125I-TGF-β1-α2M* complex. The settings on record: added after 30 min preincubation of complex. The assay is classed as binding. As to the method: To determine whether fatty acids are capable of dissociating TGF- ? - ? 2M* complexes, various concentrations of arachidonic acid were added to a reaction mixture containing ^125I-TGF- ? 1 or ^125I-TGF ? β3 and α2M* which had been preincubated at room temperature for 30 mi 30 minutes at room temperature, the ^125I-TGF ? β isoform-α2M* complexes in the reaction mixtures were analyzed by 5% non-denaturing PAGE. […] However, lower concentrations of arachidonic acid were effective in inhibiting complex formation of ^125I-TGF- ? 1 and α2M* than were required to dissociate the ^125I-TGF- ? 1- ? 2M* complex.

This is an account of results in patent US20040229791A1, “Compositions and methods of modulating TGF-beta activity by fatty acids” (priority 2002, published 2004).

Molecules are shown by their SMILES.

What is called IC50 is the midpoint of a concentration-inhibition curve. As to `CCCCC/C=C\C/C=C\C/C=C\C/C=C\CCCC(=O)O` [arachidonic acid], the IC50 in assay [1] was 7.8 ± 1.4 µM. In addition, in assay [2], the “dissociation of the 125I-TGF-β1-α2M* complex” value was “able to dissociate”.
